Reference: patent US7405307B2, “Biphenylcarboxamides useful as lipid lowering agents” (Janssen Pharmaceutica N.V., priority 2000, dated 2008)

Tested on: ApoB secretion, HepG2 cells
Experiment: Quantification of the secretion of ApoB
Type: cell-based
Settings: Homo sapiens, 24 hours of incubation with test compound, apoB immunoprecipitation, read-out: pIC50 values (= −log IC50 value) (converted)
Experimental: C. Pharmacological Examples C.1. Quantification of the Secretion of ApoB.
HepG2 cells were cultured in 24-well plates in MEM Rega 3 containing 10% fetal calf serum. At 70% confluency, the medium was changed and the test compound or carrier (DMSO, 0.4% final concentration) was added. After 24 hours of incubation, the medium was transferred to Eppendorf tubes and cleared by centrifugation. A sheep antibody directed against either apoB was added to the supernatant and the mixture was kept at 8° C. for 24 hours. Then, rabbit anti-sheep antibody was added and the immune complex was allowed to precipitate for 24 hours at 8° C. The immunoprecipitate was pelleted by centrifugation for 25 minutes at 1320 g and washed twice with a buffer containing 40 mM Mops, 40 mM NaH2PO4, 100 mM NaF, 0.2 mM DTT, 5 mM EDTA, 5 mM EGTA, 1% Triton-X-100, 0.5% sodium deoxycholate (DOC), 0.1% SDS, 0.2 μM leupeptin and 0.2 μM PMSF. Radioactivity in the pellet was quantified by liquid scintillation counting.
Resulting IC50 values are enumerated in Table C.1

Compound	IC50 [nM]
CCNC(=O)C(NC1CCN(c2ccc(NC(=O)c3ccccc3-c3ccc(C(F)(F)F)cc3)cc2)C1)c1ccccc1 (stereo not shown) [Compound 113]	10.7
CCCNC(=O)C(c1ccccc1)N(C)CCN(C)c1ccc(NC(=O)c2ccccc2-c2ccc(C(F)(F)F)cc2)cc1 (stereo not shown) [Compound 27]	625
CCCNC(=O)C(c1ccccc1)N(C)C1CCN(c2ccc(NC(=O)c3ccccc3-c3ccc(C(F)(F)F)cc3)cc2)C1 (stereo not shown) [Compound 116]	94.8
COC(=O)C(c1ccccc1)N(C)CCN(C)c1ccc(NC(=O)c2ccccc2-c2ccc(C(F)(F)F)cc2)cc1 (stereo not shown) [Compound 4]	98.4
CCOC(=O)C(c1ccccc1)N(C)C1CCN(c2ccc(NC(=O)c3ccccc3-c3ccc(C(F)(F)F)cc3)cc2)C1 (stereo not shown) [Compound 104]	< 30
CCCNC(=O)C(NC1CCN(c2ccc(NC(=O)c3ccccc3-c3ccc(C(F)(F)F)cc3)cc2)C1)c1ccccc1 (stereo not shown) [Compound 117]	< 30
CCOC(=O)C(c1ccccc1)N1CCC(Nc2ccc(NC(=O)c3ccccc3-c3ccc(C(F)(F)F)cc3)cc2)CC1 (stereo not shown) [Compound 102]	> 3000
CCNC(=O)C(c1ccccc1)N(C)CCN(C)c1ccc(NC(=O)c2ccccc2-c2ccc(C(F)(F)F)cc2)cc1 (stereo not shown) [Compound 21]	506
CCCNC(=O)C(NC1CCC(Nc2ccc(NC(=O)c3ccccc3-c3ccc(C(F)(F)F)cc3)cc2)CC1)c1ccccc1 (stereo not shown) [Compound 29]	753
CCNC(=O)C(c1ccccc1)N(C)CCCN(C)c1ccc(NC(=O)c2ccccc2-c2ccc(C(F)(F)F)cc2)cc1 (stereo not shown) [Compound 20]	1930
CCNC(=O)C(c1ccccc1)N(C)C1CCN(c2ccc(NC(=O)c3ccccc3-c3ccc(C(F)(F)F)cc3)cc2)C1 (stereo not shown) [Compound 112]	39.4
CCOC(=O)C(NC1CCN(c2ccc(NC(=O)c3ccccc3-c3ccc(C(F)(F)F)cc3)cc2)CC1)c1ccccc1 (stereo not shown) [Compound 103]	1600
COC(=O)C(c1ccccc1)N(C)CCCN(C)c1ccc(NC(=O)c2ccccc2-c2ccc(C(F)(F)F)cc2)cc1 (stereo not shown) [Compound 3]	766
COC(=O)C(NC1CCN(c2ccc(NC(=O)c3ccccc3-c3ccc(C(F)(F)F)cc3)cc2)C1)c1ccccc1 (stereo not shown) [Compound 101]	40.9
COC(=O)C(NC1CCC(Nc2ccc(NC(=O)c3ccccc3-c3ccc(C(F)(F)F)cc3)cc2)CC1)c1ccccc1 (stereo not shown) [Compound 6]	2070
CCCNC(=O)C(NC1CCN(c2ccc(NC(=O)c3ccccc3-c3ccc(C(F)(F)F)cc3)cc2)CC1)c1ccccc1 (stereo not shown) [Compound 115]	948
COC(=O)C(NC1CCN(c2ccc(NC(=O)c3ccccc3-c3ccc(C(F)(F)F)cc3)cc2)CC1)c1ccccc1 (stereo not shown) [Compound 98]	1580
CCNC(=O)C(c1ccccc1)N1CCC(Nc2ccc(NC(=O)c3ccccc3-c3ccc(C(F)(F)F)cc3)cc2)CC1 (stereo not shown) [Compound 110]	1170
CCNC(=O)C(NC1CCC(Nc2ccc(NC(=O)c3ccccc3-c3ccc(C(F)(F)F)cc3)cc2)CC1)c1ccccc1 (stereo not shown) [Compound 23]	1570
CCCNC(=O)C(c1ccccc1)N(C)CCCN(C)c1ccc(NC(=O)c2ccccc2-c2ccc(C(F)(F)F)cc2)cc1 (stereo not shown) [Compound 26]	1970
CCCNC(=O)C(c1ccccc1)N1CCC(Nc2ccc(NC(=O)c3ccccc3-c3ccc(C(F)(F)F)cc3)cc2)CC1 (stereo not shown) [Compound 114]	2610
CCOC(=O)C(NC1CCN(c2ccc(NC(=O)c3ccccc3-c3ccc(C(F)(F)F)cc3)cc2)C1)c1ccccc1 (stereo not shown) [Compound 105]	183
COC(=O)C(c1ccccc1)N(C)C1CCN(c2ccc(NC(=O)c3ccccc3-c3ccc(C(F)(F)F)cc3)cc2)C1 (stereo not shown) [Compound 100]	41.7
CCNC(=O)C(NC1CCN(c2ccc(NC(=O)c3ccccc3-c3ccc(C(F)(F)F)cc3)cc2)CC1)c1ccccc1 (stereo not shown) [Compound 111]	348

Continued, values first:

IC50 [nM]	Compound
69	CCCOC(=O)C(c1ccccc1)N(C)C1CCN(c2ccc(NC(=O)c3ccccc3-c3ccc(C(F)(F)F)cc3)cc2)C1 (stereo not shown) [Compound 108]
229	CCNC(=O)C(NCCCNc1ccc(NC(=O)c2ccccc2-c2ccc(C(F)(F)F)cc2)cc1)c1ccccc1 (stereo not shown) [Compound 19]
171	CCCNC(=O)C(NCCNc1ccc(NC(=O)c2ccccc2-c2ccc(C(F)(F)F)cc2)cc1)c1ccccc1 (stereo not shown) [Compound 24]
488	CCCOC(=O)C(NCCCNc1ccc(NC(=O)c2ccccc2-c2ccc(C(F)(F)F)cc2)cc1)c1ccccc1 (stereo not shown) [Compound 13]
938	CCCOC(=O)C(c1ccccc1)N(C)CCCN(C)c1ccc(NC(=O)c2ccccc2-c2ccc(C(F)(F)F)cc2)cc1 (stereo not shown) [Compound 14]
1370	CCOC(=O)C(NC1CCC(Nc2ccc(NC(=O)c3ccccc3-c3ccc(C(F)(F)F)cc3)cc2)CC1)c1ccccc1 (stereo not shown) [Compound 11]
566	CCOC(=O)C(c1ccccc1)N(C)CCN(C)c1ccc(NC(=O)c2ccccc2-c2ccc(C(F)(F)F)cc2)cc1 (stereo not shown) [Compound 9]
689	CCCOC(=O)C(NCCNc1ccc(NC(=O)c2ccccc2-c2ccc(C(F)(F)F)cc2)cc1)c1ccccc1 (stereo not shown) [Compound 12]
3000	CCCOC(=O)C(c1ccccc1)N1CCC(Nc2ccc(NC(=O)c3ccccc3-c3ccc(C(F)(F)F)cc3)cc2)CC1 (stereo not shown) [Compound 106]
809	CCCOC(=O)C(NC1CCC(Nc2ccc(NC(=O)c3ccccc3-c3ccc(C(F)(F)F)cc3)cc2)CC1)c1ccccc1 (stereo not shown) [Compound 17]
757	CCCOC(=O)C(c1ccccc1)N(C)CCN(C)c1ccc(NC(=O)c2ccccc2-c2ccc(C(F)(F)F)cc2)cc1 (stereo not shown) [Compound 15]
948	CCCNC(=O)C(NCCCNc1ccc(NC(=O)c2ccccc2-c2ccc(C(F)(F)F)cc2)cc1)c1ccccc1 (stereo not shown) [Compound 25]
< 30	CCNC(=O)C(NCCNc1ccc(NC(=O)c2ccccc2-c2ccc(C(F)(F)F)cc2)cc1)c1ccccc1 (stereo not shown) [Compound 18]
330	CCOC(=O)C(NCCNc1ccc(NC(=O)c2ccccc2-c2ccc(C(F)(F)F)cc2)cc1)c1ccccc1 (stereo not shown) [Compound 7]
1030	CCNC(=O)C(NCC(C)(C)CNc1ccc(NC(=O)c2ccccc2-c2ccc(C(F)(F)F)cc2)cc1)c1ccccc1 (stereo not shown) [Compound 22]
1490	CCCNC(=O)C(NCC(C)(C)CNc1ccc(NC(=O)c2ccccc2-c2ccc(C(F)(F)F)cc2)cc1)c1ccccc1 (stereo not shown) [Compound 28]
948	CCOC(=O)C(NCC(C)(C)CNc1ccc(NC(=O)c2ccccc2-c2ccc(C(F)(F)F)cc2)cc1)c1ccccc1 (stereo not shown) [Compound 10]
71	COC(=O)C(NCCNc1ccc(NC(=O)c2ccccc2-c2ccc(C(F)(F)F)cc2)cc1)c1ccccc1 (stereo not shown) [Compound 1]
150	CCCOC(=O)C(NC1CCN(c2ccc(NC(=O)c3ccccc3-c3ccc(C(F)(F)F)cc3)cc2)C1)c1ccccc1 (stereo not shown) [Compound 109]
1260	CCCOC(=O)C(NCC(C)(C)CNc1ccc(NC(=O)c2ccccc2-c2ccc(C(F)(F)F)cc2)cc1)c1ccccc1 (stereo not shown) [Compound 16]
129	CCOC(=O)C(NCCCNc1ccc(NC(=O)c2ccccc2-c2ccc(C(F)(F)F)cc2)cc1)c1ccccc1 (stereo not shown) [Compound 8]
1570	CCCOC(=O)C(NC1CCN(c2ccc(NC(=O)c3ccccc3-c3ccc(C(F)(F)F)cc3)cc2)CC1)c1ccccc1 (stereo not shown) [Compound 107]
317	COC(=O)C(NCCCNc1ccc(NC(=O)c2ccccc2-c2ccc(C(F)(F)F)cc2)cc1)c1ccccc1 (stereo not shown) [Compound 2]
1020	COC(=O)C(NCC(C)(C)CNc1ccc(NC(=O)c2ccccc2-c2ccc(C(F)(F)F)cc2)cc1)c1ccccc1 (stereo not shown) [Compound 5]

Tested on: not given
Experiment: not given
Settings: not given

Compound	melting point [°C]
COC(=O)C(NC/C=C/c1ccc(NC(=O)c2ccccc2-c2ccc(C(F)(F)F)cc2)cc1)c1ccccc1 (stereo not shown) [Compound 137]	142
